ChEMBL document CHEMBL4414672, “Synthesis of certain benzothieno[3,2-d]pyrimidine derivatives as a selective SIRT2 inhibitors” (Eur J Med Chem, 2020)

What was measured:
Format in all cases: functional
HL-60(TB) = assay: Growth inhibition of human HL-60(TB) cells at 10^-5 M incubated for 48 hrs by sulforhodamine B assay; settings: HL-60, 48 h, read-out: GI
UACC-62 = assay: Growth inhibition of human UACC62 cells at 10^-5 M incubated for 48 hrs by sulforhodamine B assay; settings: UACC-62, 48 h, read-out: GI
SK-MEL-28 = assay: Growth inhibition of human SK-MEL-28 cells at 10^-5 M incubated for 48 hrs by sulforhodamine B assay; settings: SK-MEL-28, 48 h, read-out: GI
HOP-62 = assay: Growth inhibition of human HOP62 cells at 10^-5 M incubated for 48 hrs by sulforhodamine B assay; settings: HOP-62, 48 h, read-out: GI
NCI-H226 = assay: Growth inhibition of human NCI-H226 cells at 10^-5 M incubated for 48 hrs by sulforhodamine B assay; settings: NCI-H226, 48 h, read-out: GI
Hs-578T = assay: Growth inhibition of human Hs 578T cells at 10^-5 M incubated for 48 hrs by sulforhodamine B assay; settings: read-out: GI
Malme-3M = assay: Growth inhibition of human MALME-3M cells at 10^-5 M incubated for 48 hrs by sulforhodamine B assay; settings: read-out: GI
SK-OV-3 = assay: Growth inhibition of human SKOV3 cells at 10^-5 M incubated for 48 hrs by sulforhodamine B assay; settings: SK-OV-3, 48 h, read-out: GI
COLO 205 = assay: Growth inhibition of human COLO205 cells at 10^-5 M incubated for 48 hrs by sulforhodamine B assay; settings: COLO 205, 48 h, read-out: GI
PC-3 = assay: Growth inhibition of human PC3 cells at 10^-5 M incubated for 48 hrs by sulforhodamine B assay; settings: PC-3, 48 h, read-out: GI
NCI-H322M = assay: Growth inhibition of human NCI-H322M cells at 10^-5 M incubated for 48 hrs by sulforhodamine B assay; settings: read-out: GI
UO-31 = assay: Growth inhibition of human UO31 cells at 10^-5 M incubated for 48 hrs by sulforhodamine B assay; settings: UO-31, 48 h, read-out: GI
NCI-H460 = assay: Growth inhibition of human NCI-H460 cells at 10^-5 M incubated for 48 hrs by sulforhodamine B assay; settings: NCI-H460, 48 h, read-out: GI
SNB-19 = assay: Growth inhibition of human SNB19 cells at 10^-5 M incubated for 48 hrs by sulforhodamine B assay; settings: SNB-19, 48 h, read-out: GI
786-0 = assay: Growth inhibition of human 786-0 cells at 10^-5 M incubated for 48 hrs by sulforhodamine B assay; settings: 786-0, 48 h, read-out: GI
SF-539 = assay: Growth inhibition of human SF539 cells at 10^-5 M incubated for 48 hrs by sulforhodamine B assay; settings: SF-539, 48 h, read-out: GI
ACHN = assay: Growth inhibition of human ACHN cells at 10^-5 M incubated for 48 hrs by sulforhodamine B assay; settings: read-out: GI
CAKI-1 = assay: Growth inhibition of human Caki1 cells at 10^-5 M incubated for 48 hrs by sulforhodamine B assay; settings: CAKI-1, 48 h, read-out: GI
IGROV-1 = assay: Growth inhibition of human IGROV1 cells at 10^-5 M incubated for 48 hrs by sulforhodamine B assay; settings: IGROV-1, 48 h, read-out: GI
HCT-15 = assay: Growth inhibition of human HCT15 cells at 10^-5 M incubated for 48 hrs by sulforhodamine B assay; settings: HCT-15, 48 h, read-out: GI
T47D = assay: Growth inhibition of human T47D cells at 10^-5 M incubated for 48 hrs by sulforhodamine B assay; settings: read-out: GI
BT-549 = assay: Growth inhibition of human BT549 cells at 10^-5 M incubated for 48 hrs by sulforhodamine B assay; settings: BT-549, 48 h, read-out: GI
SF-295 = assay: Growth inhibition of human SF295 cells at 10^-5 M incubated for 48 hrs by sulforhodamine B assay; settings: SF-295, 48 h, read-out: GI
MDA-MB-231 = assay: Growth inhibition of human MDA-MB-231 cells at 10^-5 M incubated for 48 hrs by sulforhodamine B assay; settings: MDA-MB-231, 48 h, read-out: GI
A498 = assay: Growth inhibition of human A498 cells at 10^-5 M incubated for 48 hrs by sulforhodamine B assay; settings: A498, 48 h, read-out: GI
NCI-H23 = assay: Growth inhibition of human NCI-H23 cells at 10^-5 M incubated for 48 hrs by sulforhodamine B assay; settings: NCI-H23, 48 h, read-out: GI
MDA-MB-468 = assay: Growth inhibition of human MDA-MB-468 cells at 10^-5 M incubated for 48 hrs by sulforhodamine B assay; settings: MDA-MB-468, 48 h, read-out: GI
K562 = assay: Growth inhibition of human K562 cells at 10^-5 M incubated for 48 hrs by sulforhodamine B assay; settings: K562, 48 h, read-out: GI
SF-268 = assay: Growth inhibition of human SF268 cells at 10^-5 M incubated for 48 hrs by sulforhodamine B assay; settings: SF-268, 48 h, read-out: GI
M14 = assay: Growth inhibition of human M14 cells at 10^-5 M incubated for 48 hrs by sulforhodamine B assay; settings: M14, 48 h, read-out: GI
RXF 393 = assay: Growth inhibition of human RXF393 cells at 10^-5 M incubated for 48 hrs by sulforhodamine B assay; settings: RXF 393, 48 h, read-out: GI
SW-620 = assay: Growth inhibition of human SW620 cells at 10^-5 M incubated for 48 hrs by sulforhodamine B assay; settings: SW-620, 48 h, read-out: GI
MOLT-4 = assay: Growth inhibition of human MOLT4 cells at 10^-5 M incubated for 48 hrs by sulforhodamine B assay; settings: MOLT-4, 48 h, read-out: GI
SK-MEL-5 = assay: Growth inhibition of human SK-MEL-5 cells at 10^-5 M incubated for 48 hrs by sulforhodamine B assay; settings: SK-MEL-5, 48 h, read-out: GI
SR = assay: Growth inhibition of human SR cells at 10^-5 M incubated for 48 hrs by sulforhodamine B assay; settings: read-out: GI
TK-10 = assay: Growth inhibition of human TK10 cells at 10^-5 M incubated for 48 hrs by sulforhodamine B assay; settings: TK-10, 48 h, read-out: GI
OVCAR-8 = assay: Growth inhibition of human OVCAR8 cells at 10^-5 M incubated for 48 hrs by sulforhodamine B assay; settings: OVCAR-8, 48 h, read-out: GI
SK-MEL-2 = assay: Growth inhibition of human SK-MEL-2 cells at 10^-5 M incubated for 48 hrs by sulforhodamine B assay; settings: SK-MEL-2, 48 h, read-out: GI

Row | Compound | inhibition of growth at 10 µM (HL-60(TB)) [%] | inhibition of growth at 10 µM (UACC-62) [%] | inhibition of growth at 10 µM (SK-MEL-28) [%] | inhibition of growth at 10 µM (HOP-62) [%] | inhibition of growth at 10 µM (NCI-H226) [%] | inhibition of growth at 10 µM (Hs-578T) [%] | inhibition of growth at 10 µM (Malme-3M) [%] | inhibition of growth at 10 µM (SK-OV-3) [%] | inhibition of growth at 10 µM (COLO 205) [%] | inhibition of growth at 10 µM (PC-3) [%] | inhibition of growth at 10 µM (NCI-H322M) [%] | inhibition of growth at 10 µM (UO-31) [%] | inhibition of growth at 10 µM (NCI-H460) [%] | inhibition of growth at 10 µM (SNB-19) [%] | inhibition of growth at 10 µM (786-0) [%] | inhibition of growth at 10 µM (SF-539) [%] | inhibition of growth at 10 µM (ACHN) [%] | inhibition of growth at 10 µM (CAKI-1) [%] | inhibition of growth at 10 µM (IGROV-1) [%] | inhibition of growth at 10 µM (HCT-15) [%] | further results
1 | O=C1CC(=O)N(C2=Nc3c(sc4ccc(Cl)cc34)C(c3cccc([N+](=O)[O-])c3)N2)N1 (centres undefined) | -8 | 8.04 | -19.8 | 9.64 | 19.4 | 5.51 | -4.33 | 1.27 | -8.39 | 2.78 | 2.7 | 38 | 2.81 | -9.31 | -4.83 | 4.39 | -11.9 | 10.9 | 20.8 | -3.4 | inhibition of growth at 10 µM (T47D): 20.9%; inhibition of growth at 10 µM (BT-549): -19.4%; inhibition of growth at 10 µM (SF-295): 0.3%; inhibition of growth at 10 µM (MDA-MB-231): 11.8%; inhibition of growth at 10 µM (A498): 6.96%; inhibition of growth at 10 µM (NCI-H23): 14.7%; inhibition of growth at 10 µM (MDA-MB-468): -2.44%; inhibition of growth at 10 µM (K562): 0.75%; inhibition of growth at 10 µM (SF-268): -5.71%; inhibition of growth at 10 µM (M14): -11.3%; inhibition of growth at 10 µM (RXF 393): 10.9%; inhibition of growth at 10 µM (SW-620): -6.45%; inhibition of growth at 10 µM (MOLT-4): -4.64%; inhibition of growth at 10 µM (SK-MEL-5): 5.38%; inhibition of growth at 10 µM (SR): -3.11%; inhibition of growth at 10 µM (TK-10): -11.9%; inhibition of growth at 10 µM (OVCAR-8): -4.71%; inhibition of growth at 10 µM (SK-MEL-2): -3.18%
2 | Cc1cc(C)n(C2=Nc3c(sc4ccc(Cl)cc34)C(c3cccc([N+](=O)[O-])c3)N2)n1 (centres undefined) | -2.76 | 9.64 | -16 | 18.2 | 17.1 | 0.17 | -2.21 | 11.4 | -5.86 | 18.6 | 0.71 | 43.7 | 7.9 | 3.18 | -6.44 | -0.76 | 11.2 | 26.4 | 20.6 | -0.63 | inhibition of growth at 10 µM (T47D): 13.2%; inhibition of growth at 10 µM (BT-549): -17.8%; inhibition of growth at 10 µM (SF-295): 2.13%; inhibition of growth at 10 µM (MDA-MB-231): 18.8%; inhibition of growth at 10 µM (A498): 1.15%; inhibition of growth at 10 µM (NCI-H23): 23%; inhibition of growth at 10 µM (MDA-MB-468): 8.16%; inhibition of growth at 10 µM (K562): 4.14%; inhibition of growth at 10 µM (SF-268): 1.15%; inhibition of growth at 10 µM (M14): -4.17%; inhibition of growth at 10 µM (RXF 393): -9.71%; inhibition of growth at 10 µM (SW-620): -3.97%; inhibition of growth at 10 µM (MOLT-4): 16.5%; inhibition of growth at 10 µM (SK-MEL-5): 4.68%; inhibition of growth at 10 µM (SR): -4.84%; inhibition of growth at 10 µM (TK-10): -12.7%; inhibition of growth at 10 µM (OVCAR-8): 0.5%; inhibition of growth at 10 µM (SK-MEL-2): -5.1%
3 | O=C1/C(=C\c2ccccc2O)Sc2ccc(Cl)cc21 | -1.87 | 22.3 | -14.6 | 5.99 | 4.98 | 3.91 | 4.11 | 5.06 | -5.97 | 1.43 | 10.4 | -16 | -8.83 | -7.92 | -0.39 | -6.81 | 2.5 | 15.9 | 0.45 | -7.07 | inhibition of growth at 10 µM (T47D): 22.2%; inhibition of growth at 10 µM (BT-549): -20.1%; inhibition of growth at 10 µM (SF-295): -6.81%; inhibition of growth at 10 µM (MDA-MB-231): 11%; inhibition of growth at 10 µM (A498): 3.49%; inhibition of growth at 10 µM (NCI-H23): 11.7%; inhibition of growth at 10 µM (MDA-MB-468): -4.1%; inhibition of growth at 10 µM (K562): 4.83%; inhibition of growth at 10 µM (SF-268): 5.86%; inhibition of growth at 10 µM (M14): 0.22%; inhibition of growth at 10 µM (RXF 393): -3.05%; inhibition of growth at 10 µM (SW-620): -11.4%; inhibition of growth at 10 µM (MOLT-4): 11.4%; inhibition of growth at 10 µM (SK-MEL-5): 4.61%; inhibition of growth at 10 µM (SR): 26.2%; inhibition of growth at 10 µM (TK-10): -16%; inhibition of growth at 10 µM (OVCAR-8): 1.53%; inhibition of growth at 10 µM (SK-MEL-2): 1.25%
